Assay results reported in US20230293644A1, “ANTI-INFLAMMATORY PEPTIDES AND COMPOSITION COMPRISING THE SAME” (Gemvax & KAEL Co., Ltd., priority 2012, published 2023).

System: TNF-α
Test: Screening of TNF-α inhibitory effect, LPS-stimulated PBMC-derived monocytes (Example 2)
Type: cell-based, human
Conditions: 4 uM peptide, 2 hrs, LPS 10 ng/ml; for TNF-α inhibiting effect compared to the group treated with LPS and estrogen: estrogen 20 nM
Protocol: PBMC (peripheral blood mononuclear cells) layer was separated from blood samples (50 ml) collected in healthy subjects using Biocoll Separating Solution (Biochrom AG, Berlin, Germany). The collected PBMC were enriched in RPMI 1640 medium containing 20% human serum for 30 mins, and then transferred to 100-mm polystyeren cell culture plate coated with human serum for incubation for 2 hrs at 37° C., 5% CO^2 incubator. Monocytes were detached from the bottom of the plate using cold PBS, and incubated to reach the number of 1 × 10^5 cell/well in 96-well plate with RPMI 1640 medium (supplemented with penicillinstreptomycin; […], human serum; 20%) over night.
ELISA was performed to find out how the peptides of the PEP RIA series influence TNF-α level. PBMC-derived monocytes were incubated to reach the number of 1 × 10^5 cells per well in a 96-well plate and then treated with LPS (lipopolysaccharide; 10 ng/ml, Sigma) for 2 hours. To the monocytes that were washed three times with PBS, OPTI-MEM culture medium was added to induce cell starvation for an hour, 4 µM of the peptide was taken out and incubated for 2 hours. There were three negative control groups. The first group was not treated with anything. The second group that was treated with estrogen (in this experiment, estradiol was used as a kind of estrogen). The third group was treated with LPS (10 ng/ml) or with LPS (10 ng/ml) as well as estrogen (20 nM). PEP1 that was confirmed to have TNF-α inhibiting activity was used as a positive control to measure TNF-α inhibiting activity. After incubation, TNF-α was measured by following the ELISA kit manual (R&D, Minneapolis, MN, USA). The details of quantification method can be found in Experiment 2.2 of Example 1.
Using the method stated above, Peptides with TNF-α inhibiting effect were screened. PBMC-derived monocytes were stimulated with LPS (10 ng/ml), which is endotoxin, for 2 hours and were induced to starve by adding OPTI-MEM for 1 hour. After that, 4 uM of 179 peptides were treated and incubated for 2 hrs. The amount of TNF-α in the cell culture medium was measured using ELISA, and the peptides with TNF-α inhibiting effect were screened by comparing to the negative and positive controls (FIG. 3 to FIG. 23).

What does the source list for “HREARPALLTSRLRFIPKPDGLRPI (listed as Homo sapiens) [SEQ ID NO: 63]”?
TNF-α inhibiting effect compared to the control group treated with only LPS: showed TNF-α inhibiting effect; TNF-α inhibiting effect compared to the group treated with LPS and estrogen: showed TNF-α inhibiting effect

With IPK [SEQ ID NO: 103] as the substance, how does the “TNF-α inhibiting effect compared to the control group treated with only LPS” value read?
The value was “showed TNF-α inhibiting effect”.

And the “TNF-α inhibiting effect compared to the group treated with LPS and estrogen” value?
Its value is “showed TNF-α inhibiting effect”.

Which “TNF-α inhibiting effect compared to the control group treated with only LPS” value does the source give for “LLTSR (listed as Homo sapiens) [SEQ ID NO: 150]” here?
Its value is “showed TNF-α inhibiting effect”.

“LLTSRL (listed as Homo sapiens) [SEQ ID NO: 108]” was tested. Which “TNF-α inhibiting effect compared to the control group treated with only LPS” value did it give?
Its value is “showed TNF-α inhibiting effect”.

And the “TNF-α inhibiting effect compared to the group treated with LPS and estrogen” value?
The value was “showed TNF-α inhibiting effect”.

What does the source list for “LLTSRLR (listed as Homo sapiens) [SEQ ID NO: 149]”?
TNF-α inhibiting effect compared to the control group treated with only LPS: showed TNF-α inhibiting effect; TNF-α inhibiting effect compared to the group treated with LPS and estrogen: showed TNF-α inhibiting effect

“LLTSRLRF (listed as Homo sapiens) [SEQ ID NO: 148]” was tested. Which “TNF-α inhibiting effect compared to the control group treated with only LPS” value did it give?
Its value is “showed TNF-α inhibiting effect”.

And the “TNF-α inhibiting effect compared to the group treated with LPS and estrogen” value?
Its value is “showed TNF-α inhibiting effect”.

Which “TNF-α inhibiting effect compared to the control group treated with only LPS” value does the source give for LRF [SEQ ID NO: 176] here?
The value was “showed TNF-α inhibiting effect”.

With “LRFI (listed as Homo sapiens) [SEQ ID NO: 175]” as the substance, how does the “TNF-α inhibiting effect compared to the control group treated with only LPS” value read?
Its value is “showed TNF-α inhibiting effect”.

Which “TNF-α inhibiting effect compared to the control group treated with only LPS” value does the source give for “LRFIP (listed as Homo sapiens) [SEQ ID NO: 174]” here?
The value was “showed TNF-α inhibiting effect”.

And the “TNF-α inhibiting effect compared to the group treated with LPS and estrogen” value?
Its value is “showed TNF-α inhibiting effect”.

“LRFIPK (listed as Homo sapiens) [SEQ ID NO: 100]” was tested. Which “TNF-α inhibiting effect compared to the control group treated with only LPS” value did it give?
The value was “showed TNF-α inhibiting effect”.

What about the “TNF-α inhibiting effect compared to the group treated with LPS and estrogen” value of the same substance?
Its value is “showed TNF-α inhibiting effect”.

With “LSEAEVRQHREARPALLTSRLRFIPK (listed as Homo sapiens) [SEQ ID NO: 11]” as the substance, how does the “TNF-α inhibiting effect compared to the control group treated with only LPS” value read?
Its value is “showed TNF-α inhibiting effect”.

And the “TNF-α inhibiting effect compared to the group treated with LPS and estrogen” value?
The value was “showed TNF-α inhibiting effect”.

For LTS [SEQ ID NO: 158], which “TNF-α inhibiting effect compared to the control group treated with only LPS” value is on record?
Its value is “showed TNF-α inhibiting effect”.

Which “TNF-α inhibiting effect compared to the control group treated with only LPS” value does the source give for “LTSRL (listed as Homo sapiens) [SEQ ID NO: 157]” here?
The value was “showed TNF-α inhibiting effect”.

And the “TNF-α inhibiting effect compared to the group treated with LPS and estrogen” value?
Its value is “showed TNF-α inhibiting effect”.

With “LTSRLR (listed as Homo sapiens) [SEQ ID NO: 156]” as the substance, how does the “TNF-α inhibiting effect compared to the control group treated with only LPS” value read?
Its value is “showed TNF-α inhibiting effect”.

What about the “TNF-α inhibiting effect compared to the group treated with LPS and estrogen” value of the same substance?
The value was “showed TNF-α inhibiting effect”.

“LTSRLRFIPK (listed as Homo sapiens) [SEQ ID NO: 96]” was tested. Which “TNF-α inhibiting effect compared to the control group treated with only LPS” value did it give?
Its value is “showed TNF-α inhibiting effect”.

And the “TNF-α inhibiting effect compared to the group treated with LPS and estrogen” value?
Its value is “showed TNF-α inhibiting effect”.

For “PALLTSRLRFI (listed as Homo sapiens) [SEQ ID NO: 131]”, which “TNF-α inhibiting effect compared to the control group treated with only LPS” value is on record?
Its value is “showed TNF-α inhibiting effect”.

How did the “TNF-α inhibiting effect compared to the control group treated with only LPS” value turn out when “QHREARPALLTSRLRFIPKP (listed as Homo sapiens) [SEQ ID NO: 20]” was run?
The value was “showed TNF-α inhibiting effect”.

And the “TNF-α inhibiting effect compared to the group treated with LPS and estrogen” value?
The value was “showed TNF-α inhibiting effect”.

How did the “TNF-α inhibiting effect compared to the control group treated with only LPS” value turn out when “QHREARPALLTSRLRFIPKPD (listed as Homo sapiens) [SEQ ID NO: 21]” was run?
Its value is “showed TNF-α inhibiting effect”.

How did the “TNF-α inhibiting effect compared to the control group treated with only LPS” value turn out when “QHREARPALLTSRLRFIPKPDGLRPI (listed as Homo sapiens) [SEQ ID NO: 62]” was run?
The value was “showed TNF-α inhibiting effect”.

What about the “TNF-α inhibiting effect compared to the group treated with LPS and estrogen” value of the same substance?
Its value is “showed TNF-α inhibiting effect”.

What does the source list for “REARPALLTSRLRFIPKPD (listed as Homo sapiens) [SEQ ID NO: 19]”?
TNF-α inhibiting effect compared to the control group treated with only LPS: showed TNF-α inhibiting effect; TNF-α inhibiting effect compared to the group treated with LPS and estrogen: showed TNF-α inhibiting effect

Which “TNF-α inhibiting effect compared to the control group treated with only LPS” value does the source give for “REARPALLTSRLRFIPKPDGLRPI (listed as Homo sapiens) [SEQ ID NO: 64]” here?
Its value is “showed TNF-α inhibiting effect”.

What about the “TNF-α inhibiting effect compared to the group treated with LPS and estrogen” value of the same substance?
The value was “showed TNF-α inhibiting effect”.

Which “TNF-α inhibiting effect compared to the control group treated with only LPS” value does the source give for “RELSEAEVRQHREARPALLTSRLRFIPK (listed as Homo sapiens) [SEQ ID NO: 13]” here?
Its value is “showed TNF-α inhibiting effect”.

Which “TNF-α inhibiting effect compared to the control group treated with only LPS” value does the source give for RFI [SEQ ID NO: 178] here?
Its value is “showed TNF-α inhibiting effect”.

For “RFIP (listed as Homo sapiens) [SEQ ID NO: 177]”, which “TNF-α inhibiting effect compared to the control group treated with only LPS” value is on record?
The value was “showed TNF-α inhibiting effect”.

With “RFIPK (listed as Homo sapiens) [SEQ ID NO: 101]” as the substance, how does the “TNF-α inhibiting effect compared to the control group treated with only LPS” value read?
Its value is “showed TNF-α inhibiting effect”.

And the “TNF-α inhibiting effect compared to the group treated with LPS and estrogen” value?
The value was “showed TNF-α inhibiting effect”.

Which results are given for RLR [SEQ ID NO: 173]?
TNF-α inhibiting effect compared to the control group treated with only LPS: showed TNF-α inhibiting effect; TNF-α inhibiting effect compared to the group treated with LPS and estrogen: showed TNF-α inhibiting effect

What does the source list for “RLRF (listed as Homo sapiens) [SEQ ID NO: 172]”?
TNF-α inhibiting effect compared to the control group treated with only LPS: showed TNF-α inhibiting effect; TNF-α inhibiting effect compared to the group treated with LPS and estrogen: showed TNF-α inhibiting effect

Which “TNF-α inhibiting effect compared to the control group treated with only LPS” value does the source give for “RLRFIPK (listed as Homo sapiens) [SEQ ID NO: 99]” here?
The value was “showed TNF-α inhibiting effect”.

What about the “TNF-α inhibiting effect compared to the group treated with LPS and estrogen” value of the same substance?
Its value is “showed TNF-α inhibiting effect”.

Which “TNF-α inhibiting effect compared to the control group treated with only LPS” value does the source give for “RPALLTSR (listed as Homo sapiens) [SEQ ID NO: 124]” here?
Its value is “showed TNF-α inhibiting effect”.

Which “TNF-α inhibiting effect compared to the control group treated with only LPS” value does the source give for “RPALLTSRLRFI (listed as Homo sapiens) [SEQ ID NO: 105]” here?
The value was “showed TNF-α inhibiting effect”.

With “RPALLTSRLRFIPK (listed as Homo sapiens) [SEQ ID NO: 92]” as the substance, how does the “TNF-α inhibiting effect compared to the control group treated with only LPS” value read?
Its value is “showed TNF-α inhibiting effect”.

How did the “TNF-α inhibiting effect compared to the control group treated with only LPS” value turn out when “RQHREARPALLTSRLRFIPKP (listed as Homo sapiens) [SEQ ID NO: 25]” was run?
The value was “showed TNF-α inhibiting effect”.

And the “TNF-α inhibiting effect compared to the group treated with LPS and estrogen” value?
The value was “showed TNF-α inhibiting effect”.

How did the “TNF-α inhibiting effect compared to the control group treated with only LPS” value turn out when “RQHREARPALLTSRLRFIPKPD (listed as Homo sapiens) [SEQ ID NO: 26]” was run?
Its value is “showed TNF-α inhibiting effect”.

And the “TNF-α inhibiting effect compared to the group treated with LPS and estrogen” value?
Its value is “showed TNF-α inhibiting effect”.

For “RQHREARPALLTSRLRFIPKPDG (listed as Homo sapiens) [SEQ ID NO: 27]”, which “TNF-α inhibiting effect compared to the control group treated with only LPS” value is on record?
Its value is “showed TNF-α inhibiting effect”.

And the “TNF-α inhibiting effect compared to the group treated with LPS and estrogen” value?
Its value is “showed TNF-α inhibiting effect”.

Which “TNF-α inhibiting effect compared to the control group treated with only LPS” value does the source give for “RQHREARPALLTSRLRFIPKPDGL (listed as Homo sapiens) [SEQ ID NO: 28]” here?
The value was “showed TNF-α inhibiting effect”.

What does the source list for “SEAEVRQHREARPALLTSRLRFIPK (listed as Homo sapiens) [SEQ ID NO: 10]”?
TNF-α inhibiting effect compared to the control group treated with only LPS: showed TNF-α inhibiting effect; TNF-α inhibiting effect compared to the group treated with LPS and estrogen: showed TNF-α inhibiting effect

For “SRLR (listed as Homo sapiens) [SEQ ID NO: 168]”, which “TNF-α inhibiting effect compared to the control group treated with only LPS” value is on record?
The value was “showed TNF-α inhibiting effect”.

With “SRLRF (listed as Homo sapiens) [SEQ ID NO: 167]” as the substance, how does the “TNF-α inhibiting effect compared to the control group treated with only LPS” value read?
Its value is “showed TNF-α inhibiting effect”.

What about the “TNF-α inhibiting effect compared to the group treated with LPS and estrogen” value of the same substance?
The value was “showed TNF-α inhibiting effect”.

Which results are given for “SRLRFI (listed as Homo sapiens) [SEQ ID NO: 166]”?
TNF-α inhibiting effect compared to the control group treated with only LPS: showed TNF-α inhibiting effect; TNF-α inhibiting effect compared to the group treated with LPS and estrogen: showed TNF-α inhibiting effect

Which “TNF-α inhibiting effect compared to the control group treated with only LPS” value does the source give for “SRLRFIP (listed as Homo sapiens) [SEQ ID NO: 165]” here?
Its value is “showed TNF-α inhibiting effect”.

What about the “TNF-α inhibiting effect compared to the group treated with LPS and estrogen” value of the same substance?
Its value is “showed TNF-α inhibiting effect”.

What does the source list for “SRLRFIPK (listed as Homo sapiens) [SEQ ID NO: 98]”?
TNF-α inhibiting effect compared to the control group treated with only LPS: showed TNF-α inhibiting effect; TNF-α inhibiting effect compared to the group treated with LPS and estrogen: showed TNF-α inhibiting effect

For TSR [SEQ ID NO: 164], which “TNF-α inhibiting effect compared to the control group treated with only LPS” value is on record?
Its value is “showed TNF-α inhibiting effect”.

And the “TNF-α inhibiting effect compared to the group treated with LPS and estrogen” value?
Its value is “showed TNF-α inhibiting effect”.
